Columns and labels:
Type in all cases: in vivo, male C57BL/6JRj mice
DIO-NASH mice [1] = assay: 4 h fasted plasma insulin (MSD platform); conditions: for 4 h fasted plasma insulin / Delta 4 h fasted plasma insulin week 12 vs baseline: group mean
Protocol: (§1) For plasma biochemistry, tail blood was drawn directly through the capillary of a Microvette/Vacuette of the right dimension and anticoagulant and mixed by inversion 5 times. Blood was placed at 4° C. until centrifugation at 3000×g for 10 minutes at 4° C. The plasma supernatants were transferred to new tubes and immediately frozen on dry ice and stored at −80° C. until analysis.
(§2) Mouse insulin was measured in single determinations using the MSD platform (Meso Scale Diagnostics).
4 h fasted plasma insulin (pg/mL) at baseline. Values expressed as mean of n=12-14+SEM.
4 h fasted plasma insulin (pg/mL) at week 12. Values expressed as mean of n=12-14+SEM.
Delta 4 h fasted plasma insulin (pg/mL) week 12 vs baseline. Values expressed as mean of n=12-14+SEM.

DIO-NASH mice [2] = assay: Plasma total cholesterol (TC) at termination; conditions: for Plasma total cholesterol (TC) at termination: group mean
Protocol: as §1, §2
Plasma total cholesterol (TC) at termination (mmol/L). Values expressed as mean of n=12-14+SEM.

DIO-NASH mice [3] = assay: Plasma aspartate transaminase (AST) at termination; conditions: group mean
Protocol: as §1, §2
Plasma aspartate transaminase (AST) at termination (U/L). Values expressed as mean of n=11-14+SEM.

DIO-NASH mice [4] = assay: Liver triglycerides (TG) at termination; conditions: group mean
Protocol: The liver post-biopsy for histological analyses was removed by dissection from the left lateral lobe, fixated in 4% formalin for 20-24 h, and subsequently embedded in paraffin. Liver biopsies for liver triglycerides and total cholesterol were dissected from the medial lobe, snap frozen in liquid nitrogen, and stored at −80° C., while liver biopsies for hydroxyproline were dissected from the caudal lobe (the entire lobe), snap frozen in liquid nitrogen and stored at −80° C. Finally, a liver sample for RNA isolation and gene expression analysis was dissected from the left lateral lobe, snap frozen in liquid nitrogen, and stored at −80° C. until processing.
For liver TG and TC quantification, samples were homogenized, and TG and TC extracted in 5% NP-40 by heating twice to 90° C. The samples were centrifuged, and the TG and TC content measured in the supernatant, using commercial kits (Roche Diagnostics) on the Cobas c501 autoanalyzer according to the manufacturer's instructions.
Relative (mg/g of liver) liver triglycerides (TG) at termination. Values expressed as mean of n=12-14+SEM.
Total (mg/liver) liver triglycerides (TG) at termination. Values expressed as mean of n=12-14+SEM.

DIO-NASH mice [5] = assay: Liver steatosis (liver lipid) quantified by morphometry on HE slides; conditions: terminal, group mean
Protocol: For Hematoxylin & Eosin (HE) staining, slides were incubated in Mayer's Hematoxylin, washed in tap water, stained in Eosin Y solution, […], mounted with Pertex and allowed to dry before scanning.
Quantitative assessment of steatosis is evaluated as follows. Steatosis is quantified on H&E stained slides by image analysis using the Visiomorph software (Visiopharm, Denmark). Visiomorph protocols are designed to analyze the virtual slides in two steps: 1. Crude detection of tissue at low magnification (1× objective). 2. Detection of steatosis (pink) and tissue (blue) at high magnification (20× objective). The quantitative estimate of steatosis is calculated as an area fraction (AF) according to the following formula:
Terminal liver steatosis (i.e. liver lipid) was quantified by morphometry. Relative liver steatosis is denoted in % fractional area. Values expressed as mean of n=12-14+SEM.
Total liver steatosis is denoted in milligrams (% fractional area multiplied with liver weight). Values expressed as mean of n=12-14+SEM.

DIO-NASH mice [6] = assay: Liver α-SMA IHC quantified by morphometry; conditions: for Relative terminal liver α-SMA by morphometry / Total terminal α-SMA (% fractional area multiplied with liver weight): group mean
Protocol: (§3) Protein markers of fibrosis (Col1a1), fibrogenesis (α-SMA) and inflammation (Gal-3) were assessed by immunohistochemistry. α-SMA and collagen type I increase in regulation of quiescent hepatic stellate cell activation into myofibroblast-like cells where activated hepatic stellate cells are the main collagen producing cells in the liver (Carpino et al 2005, Hou and Syn 2018) whereas Gal-3 is involved in mediating inflammatory response and considered as a macrophage activation marker (Sciacchitano et al, 2018). For morphometric quantification of liver Col1a1 (using antibody from Southern Biotech, Cat. #1310-01), alpha-smooth muscle actin (α-SMA; using antibody from Abcam, Cat. #Ab124964) and Galectin-3 (using antibody from Biolegend, Cat. #125402), IHC staining was performed using standard procedures. Briefly, after antigen retrieval and blocking of endogenous peroxidase activity, slides were incubated with primary antibody. For all IHC stains, the primary antibody was detected using a polymeric HRP-linker antibody conjugate and visualized using DAB as chromogen. Finally, sections were counterstained in hematoxylin and cover-slipped before scanning.
(§4) Quantitative assessment of immunoreactivity is evaluated as follows. IHC-positive staining is quantified by image analysis using the Visiomorph software (Visiopharm, Denmark). Visiomorph protocols are designed to analyze the virtual slides in two steps: 1. Crude detection of tissue at low magnification (1× objective). The liver capsule is excluded. 2. Detection of IHC-positive staining (e.g. green; collagen 1 IHC), tissue (e.g. red) and fat (e.g. pink) at high magnification (10×objective). The quantitative estimate of IHC-positive staining is calculated as an area fraction (AF) according to the following formula:
Terminal liver α-SMA was quantified by morphometry. Relative terminal liver α-SMA (% fractional area) is expressed as mean of n=12-14+SEM.
Total terminal α-SMA values are in milligrams (% fractional area multiplied with liver weight) and expressed as mean of n=12-14+SEM.

DIO-NASH mice [7] = assay: Liver Galectin-3 IHC quantified by morphometry; conditions: at termination, mean of n=12-14; for Total terminal liver Galectin-3 (Average): % fractional area multiplied with liver weight; for Relative terminal liver Galectin-3 (Average): morphometry
Protocol: as §3, §4
Terminal liver Galectin-3 was quantified by morphometry. Relative terminal liver Galectin-3 (% fractional area) is expressed as mean of n=12-14+SEM.
Total terminal Galectin-3 values are in milligrams (% fractional area multiplied with liver weight) and expressed as mean of n=12-14+SEM.

[8] = DIO-NASH mice, 12 weeks of treatment, summary of data
[9] = at baseline, CHS-131 High dose (alone or combined)
[10] = week 12, CHS-131 High dose (alone or combined)
[11] = CHS-131 High dose (alone or combined)

Structure (SMILES): O=S(=O)(Nc1cc(Cl)c(Oc2cnc3ccccc3c2)c(Cl)c1)c1ccc(Cl)cc1Cl [CHS-131]
- Plasma insulin, effect in words (DIO-NASH mice [1]; [8]): reduced
- Decrease of fasting plasma insulin (DIO-NASH mice [1]; DIO-NASH mice, compared to DIO mice administered vehicle only, significant, dose response manner): 50%
- 4 h fasted plasma insulin (DIO-NASH mice [1]; [9]): 816 pg/mL
- 4 h fasted plasma insulin (DIO-NASH mice [1]; at baseline, CHS-131 Low dose): 703 pg/mL
- 4 h fasted plasma insulin (DIO-NASH mice [1]; [10]): 402 pg/mL
- 4 h fasted plasma insulin (DIO-NASH mice [1]; week 12, CHS-131 Low dose): 485 pg/mL
- Delta 4 h fasted plasma insulin week 12 vs baseline (DIO-NASH mice [1]; [11]): -414 pg/mL
- Delta 4 h fasted plasma insulin week 12 vs baseline (DIO-NASH mice [1]; CHS-131 Low dose): -219 pg/mL
- Plasma TC, effect in words (DIO-NASH mice [2]; [8]): reduced
- Decrease of plasma cholesterol (DIO-NASH mice [2]; DIO-NASH mice, compared to DIO mice administered vehicle only, significant, not in a dose response manner): ~12%
- Plasma total cholesterol (TC) at termination (DIO-NASH mice [2]; [11]): 6.38 mmol/L
- Plasma total cholesterol (TC) at termination (DIO-NASH mice [2]; CHS-131 Low dose): 6.45 mmol/L
- Plasma aspartate transaminase (AST) at termination (DIO-NASH mice [3]; [11]): 166 U/L
- Plasma aspartate transaminase (AST) at termination (DIO-NASH mice [3]; CHS-131 Low dose): 189 U/L
- Relative liver triglycerides (TG) at termination (DIO-NASH mice [4]; [11]): 92.9 mg/g of liver
- Total liver triglycerides (TG) at termination (DIO-NASH mice [4]; [11]): 300 mg/liver
- Relative liver triglycerides (TG) at termination (DIO-NASH mice [4]; CHS-131 Low dose): 96.7 mg/g of liver
- Total liver triglycerides (TG) at termination (DIO-NASH mice [4]; CHS-131 Low dose): 306 mg/liver
- Relative liver steatosis (liver lipid) by morphometry (DIO-NASH mice [5]; [11]): 23.1 % fractional area
- Total liver steatosis (% fractional area multiplied with liver weight) (DIO-NASH mice [5]; [11]): 758 milligrams
- Relative liver steatosis (liver lipid) by morphometry (DIO-NASH mice [5]; CHS-131 Low dose): 26.4 % fractional area
- Total liver steatosis (% fractional area multiplied with liver weight) (DIO-NASH mice [5]; CHS-131 Low dose): 826 milligrams
- Marker of fibrosis α-SMA, effect in words (DIO-NASH mice [6]; [8]): positive trends for improvement
- Decrease of terminal α-SMA (marker of fibrosis) (DIO-NASH mice [6]; DIO-NASH mice, compared to vehicle alone, trend): 15%
- Relative terminal liver α-SMA by morphometry (DIO-NASH mice [6]; [11]): 3.07 % fractional area
- Total terminal α-SMA (% fractional area multiplied with liver weight) (DIO-NASH mice [6]; [11]): 102 milligrams
- Relative terminal liver α-SMA by morphometry (DIO-NASH mice [6]; CHS-131 Low dose): 3.49 % fractional area
- Total terminal α-SMA (% fractional area multiplied with liver weight) (DIO-NASH mice [6]; CHS-131 Low dose): 110 milligrams
- Total terminal liver Galectin-3 (Average) (DIO-NASH mice [7]; CHS-131 High dose + Vehicle): 90.6 milligrams
- Relative terminal liver Galectin-3 (Average) (DIO-NASH mice [7]; CHS-131 High dose + Vehicle): 2.79 % fractional area
- Total terminal liver Galectin-3 (Average) (DIO-NASH mice [7]; CHS-131 Low dose + Vehicle): 93.8 milligrams
- Relative terminal liver Galectin-3 (Average) (DIO-NASH mice [7]; CHS-131 Low dose + Vehicle): 2.95 % fractional area

Structure (SMILES): CSc1ccc(C(=O)/C=C/c2cc(C)c(OC(C)(C)C(=O)O)c(C)c2)cc1 [Elafibranor, reference compound]
- 4 h fasted plasma insulin (DIO-NASH mice [1]; [9]): 644 pg/mL
- 4 h fasted plasma insulin (DIO-NASH mice [1]; [10]): 297 pg/mL
- Delta 4 h fasted plasma insulin week 12 vs baseline (DIO-NASH mice [1]; [11]): -347 pg/mL
- Plasma total cholesterol (TC) at termination (DIO-NASH mice [2]; [11]): 5.75 mmol/L
- Plasma aspartate transaminase (AST) at termination (DIO-NASH mice [3]; [11]): 205 U/L
- Relative liver triglycerides (TG) at termination (DIO-NASH mice [4]; [11]): 45.2 mg/g of liver
- Total liver triglycerides (TG) at termination (DIO-NASH mice [4]; [11]): 196 mg/liver
- Relative liver steatosis (liver lipid) by morphometry (DIO-NASH mice [5]; [11]): 7.21 % fractional area
- Total liver steatosis (% fractional area multiplied with liver weight) (DIO-NASH mice [5]; [11]): 322 milligrams
- Relative terminal liver α-SMA by morphometry (DIO-NASH mice [6]; [11]): 2.56 % fractional area
- Total terminal α-SMA (% fractional area multiplied with liver weight) (DIO-NASH mice [6]; [11]): 114 milligrams
- Total terminal liver Galectin-3 (Average) (DIO-NASH mice [7]): 104 milligrams
- Relative terminal liver Galectin-3 (Average) (DIO-NASH mice [7]): 2.43 % fractional area

Structure (SMILES): OC[C@H]1O[C@@H](c2ccc(Cl)c(Cc3ccc(O[C@H]4CCOC4)cc3)c2)[C@H](O)[C@@H](O)[C@@H]1O [Empagliflozin, reference compound]
- 4 h fasted plasma insulin (DIO-NASH mice [1]; [9]): 743 pg/mL
- 4 h fasted plasma insulin (DIO-NASH mice [1]; [10]): 673 pg/mL
- Delta 4 h fasted plasma insulin week 12 vs baseline (DIO-NASH mice [1]; [11]): -69.9 pg/mL
- Plasma total cholesterol (TC) at termination (DIO-NASH mice [2]; [11]): 7.62 mmol/L
- Plasma aspartate transaminase (AST) at termination (DIO-NASH mice [3]; [11]): 230 U/L
- Relative liver triglycerides (TG) at termination (DIO-NASH mice [4]; [11]): 108 mg/g of liver
- Total liver triglycerides (TG) at termination (DIO-NASH mice [4]; [11]): 368 mg/liver
- Relative liver steatosis (liver lipid) by morphometry (DIO-NASH mice [5]; [11]): 27.2 % fractional area
- Total liver steatosis (% fractional area multiplied with liver weight) (DIO-NASH mice [5]; [11]): 923 milligrams
- Markers of fibrosis, effect in words (DIO-NASH mice [6]; DIO-NASH mice, 12 weeks of treatment, summary of data, markers not given): significant reduction
- Relative terminal liver α-SMA by morphometry (DIO-NASH mice [6]; [11]): 3.8 % fractional area
- Total terminal α-SMA (% fractional area multiplied with liver weight) (DIO-NASH mice [6]; [11]): 130 milligrams
- Total terminal liver Galectin-3 (Average) (DIO-NASH mice [7]): 99.9 milligrams
- Relative terminal liver Galectin-3 (Average) (DIO-NASH mice [7]): 2.9 % fractional area
